Results reported in EP4741392A1, “1H-PYRAZOLO[4,3-C]PYRIDINE COMPOUND, AND COMPOSITION THEREOF AND USE THEREOF” (Shenzhen TargetRx Co., Ltd., priority 2023, dated 2025).
Where two headings read alike, the source gives them in different places.

Experiments:
Type in all cases: cell-based
NIH/3T3 BTK C481S cells = assay: Phosphor-BTK(Y223) assay, adherent cells; conditions: read-out: NIH/3T3 BTK-C481S pBTK
Experimental: (§1) The purpose of this assay was to simply, quickly and directly detect the level of endogenous BTK phosphorylation in cells.
(§2) The steps for handling adherent cells were as follows: • 1) NIH/3T3 BTK WT cells (7.5 k/well) and NIH/3T3 BTK C481S cells (10 k/well) were plated in a 96-well plate, respectively, and cultured at 37 °C and 5% CO2 overnight. • 2) A 3-fold final concentration gradient dilution of a compound was prepared, and 50 µL of it was taken and added to 100 µL of cell culture. 0.5% DMSO was used as a positive control for cell growth. • 3) The plate was incubated at 37 °C and 5% CO2 for 0.5 h. • 4) Na3VO4 at a final concentration of 1mM was added, and the plate was incubated at 37 °C and 5% CO2 for 2 hours. • 5) During the incubation, the following reagents were prepared: • 1x added lysis buffer: 3 vol ddH2O + 1 vol 4x lysis buffer + 100x blocking reagent. • p-BTK (Y223) cryptate-antibody and p-BTK (Y223) d2-antibody working solutions: 1 volume of each cryopreserved antibody (stored at - 20 °C) was added to 19 times the volume of assay buffer (stored at 4 °C). • 6) After the incubation was completed, the medium was removed and 50 µL of 1x added lysis buffer was added. The plate was centrifuged at 500 rpm at room temperature for 30 min. • 7) The lysate was mixed well and 16 µL of it was transferred to a 384-well plate. 1 × added lysis buffer was used as a blank control. • 8) 4 µL of pre-mixed working solutions of the two antibodies (cryptate Ab:d2 Ab = 1:1) was added, and the plate was sealed. • 9) The plate was incubated at room temperature overnight. 10) The plate was read at 665nm and 620nm using Biotek cytation3.0 microplate reader, and the ratio of 665/620nm of each well was calculated.
(§3) The IC50 (half-maximal phosphorylation inhibitory concentration) of the phosphorylated BTK Y223 of the compound was obtained using the following nonlinear fitting formula: Y = Bottom + (Top−Bottom)/(1+10^(∧)((LogIC50−X)*HillSlope)) [formula] • X: Log value of the compound concentration • Y: Inhibition rate (% inhibition) • Top: Maximum response • Bottom: Baseline response • HillSlope: Slope of the curve
(§4) The formula for calculating cell phosphorylation inhibition rate (inhibition rate %) was: Inhibition rate% = 1−(eachconcentrationwell-blankwell)/(positivecontrolwell−blankwell) [formula]

NIH/3T3 BTK WT cells = assay: Phosphor-BTK(Y223) assay, adherent cells; conditions: read-out: NIH/3T3 BTK-WT pBTK
Experimental: as §1, §2, §3, §4

Ramos cells with BTK WT = assay: Phosphor-BTK(Y223) assay, suspended cells; conditions: phosphorylated BTK Y223, Ramos cells with BTK WT
Experimental: as §1
The steps for handling suspended cells were as follows: • 1) Ramos cells with BTK WT (2.5 k/well), BTK C481S (2.5 k/well), or BTK T474I (2.5 k/well) were plated in a 96-well plate, respectively. A compound of different concentration gradients was added using Tecan D300e, and the plate was incubated at 37 °C and 5% CO2 for 2 hours. • 2) 8.33 µL of 20 mM Na3VO4 was added to bring the final concentration to 5 mM, and the plate was incubated at 37 °C and 5% CO2 for 3 h. • 3) During the incubation, the following reagents were prepared: • 4x added lysis buffer: 24 vol 4x lysis buffer + 1 vol 25x blocking reagent. • p-BTK (Y223) cryptate-antibody and p-BTK (Y223) d2-antibody working solutions: 1 volume of each cryopreserved antibody (stored at - 20 °C) was added to 38 times the volume of assay buffer (stored at 4 °C), and mixed well. • 4) After the incubation was completed, 11.1 µL of 4x added lysis buffer was directly added. The plate was shaken at 800 rpm at room temperature for 30 min. • 5) The lysate was mixed well and 16 µL of it was transferred to a 384-well plate. 1 × added lysis buffer was used as a blank control. • 6) 4 µL of pre-mixed working solutions of the two antibodies (cryptate Ab:d2 Ab = 1:1) was added, and the plate was sealed. • 7) The plate was incubated at room temperature overnight. • 8) The plate was read at 665nm and 620nm using Biotek cytation3.0 microplate reader, and the ratio of 665/620nm of each well was calculated. Data analysis: IC50 was calculated using GraphPad Prism 7.0 software.
as §3, §4

[1] = Mus musculus, NIH3T3, phosphorylated BTK Y223, NIH/3T3 BTK C481S cells
[2] = Mus musculus, NIH3T3, phosphorylated BTK Y223, NIH/3T3 BTK WT cells
[3] = phosphorylated BTK Y223, NIH/3T3 BTK C481S cells
[4] = phosphorylated BTK Y223, NIH/3T3 BTK WT cells

Row | Compound | IC50 (Ramos cells with BTK WT; Homo sapiens, Ramos) | IC50 (Ramos cells with BTK WT) | IC50 (NIH/3T3 BTK C481S cells; [1]) | IC50 (NIH/3T3 BTK WT cells; [2]) | IC50 (NIH/3T3 BTK C481S cells; [3]) | IC50 (NIH/3T3 BTK WT cells; [4])
1 | COc1ccc(F)cc1C(=O)NCc1ccc(-c2nc(C(C)C(F)(F)F)cc3[nH]nc(N)c23)cc1 (single isomer, unassigned) [Example 2, N-(4-(3-amino-6-(1,1,1-trifluoropropan-2-yl)-1H-pyrazolo[4,3-c]pyridin-4-yl)benzyl)-5-fluoro-2-methoxybenzamide] | 5 to 10 nM | – | 10 to 50 nM | 5 to 10 nM | – | –
2 | COc1ccc(F)cc1C(=O)NCc1ccc(-c2nc(C(C)C(F)(F)F)cc3[nH]nc(N)c23)cc1 (single isomer, unassigned) [Example 3, N-(4-(3-amino-6-(1,1,1-trifluoropropan-2-yl)-1H-pyrazolo[4,3-c]pyridin-4-yl)benzyl)-5-fluoro-2-methoxybenzamide] | – | 5 to 10 nM | – | – | 5 to 10 nM | ≤ 5 nM
3 | COc1ccc(F)cc1C(=O)NCc1ccc(-c2nc(C(C)C(F)(F)F)c(-c3ccn(C)n3)c3[nH]nc(N)c23)cc1 (single isomer, unassigned) [Example 6-1, N-(4-(3-amino-7-(1-methyl-1H-pyrazol-3-yl)-6-(1,1,1-trifluoropropan-2-yl)-1H-pyrazolo[4,3-c]pyridin-4-yl)benzyl)-5-fluoro-2-methoxybenzamide] | ≤ 5 nM | – | 10 to 50 nM | ≤ 5 nM | – | –
4 | COc1ccc(F)cc1C(=O)NCc1ccc(-c2nc(C(C)C(F)(F)F)c(-c3ccn(C)n3)c3[nH]nc(N)c23)cc1 (single isomer, unassigned) [Example 6-2, N-(4-(3-amino-7-(1-methyl-1H-pyrazol-3-yl)-6-(1,1,1-trifluoropropan-2-yl)-1H-pyrazolo[4,3-c]pyridin-4-yl)benzyl)-5-fluoro-2-methoxybenzamide] | – | ≤ 5 nM | – | – | 10 to 50 nM | ≤ 5 nM
5 | COc1ccc(F)cc1C(=O)NCc1ccc(-c2nc(C(C)C(F)(F)F)cc3[nH]nc(N)c23)cc1 (centres unmarked) [Example 1, N-(4-(3-amino-6-(1,1,1-trifluoropropan-2-yl)-1H-pyrazolo[4,3-c]pyridin-4-yl)benzyl)-5-fluoro-2-methoxybenzamide] | – | – | 10 to 50 nM | 10 to 50 nM | – | –
6 | COc1ccc(F)cc1C(=O)NCc1ccc(-c2nc(C(C)C(F)(F)F)c(-c3cc(C)[nH]n3)c3[nH]nc(N)c23)cc1 (centres unmarked) [Example 9, N-(4-(3-amino-7-(5-methyl-1H-pyrazol-3-yl)-6-(1,1,1-trifluoropropan-2-yl)-1H-pyrazolo[4,3-c]pyridin-4-yl)benzyl)-5-fluoro-2-methoxybenzamide] | 5 to 10 nM | – | 10 to 50 nM | 5 to 10 nM | – | –
7 | COc1ccc(F)cc1C(=O)NCc1ccc(-c2ncc(-c3cnccn3)c3[nH]nc(N)c23)cc1 [Example 18, N-(4-(3-amino-7-(pyrazin-2-yl)-1H-pyrazolo[4,3-c]pyridin-4-yl)benzyl)-5-fluoro-2-methoxybenzamide] | 10 to 50 nM | – | 10 to 50 nM | ≤ 5 nM | – | –
8 | COc1ccc(F)cc1C(=O)NCc1ccc(-c2ncc(-c3ccncn3)c3[nH]nc(N)c23)cc1 [Example 19] | 5 to 10 nM | – | 5 to 10 nM | ≤ 5 nM | – | –
9 | COc1ccc(F)cc1C(=O)NCc1ccc(-c2ncc(-c3ccc(C(F)(F)F)cn3)c3[nH]nc(N)c23)cc1 [Example 24, N-(4-(3-amino-7-(5-(trifluoromethyl)pyridin-2-yl)-1H-pyrazolo[4,3-c]pyridin-4-yl)benzyl)-5-fluoro-2-methoxybenzamide] | ≤ 5 nM | – | ≤ 5 nM | ≤ 5 nM | – | –

Continued, in another order:

Row | IC50 (Ramos cells with BTK WT; Homo sapiens, Ramos) | IC50 (Ramos cells with BTK WT) | Compound | IC50 (NIH/3T3 BTK C481S cells; [1]) | IC50 (NIH/3T3 BTK WT cells; [2]) | IC50 (NIH/3T3 BTK C481S cells; [3]) | IC50 (NIH/3T3 BTK WT cells; [4])
10 | ≤ 5 nM | – | COc1ccc(F)cc1C(=O)NCc1ccc(-c2nc(C(C)C(F)(F)F)c(-c3ncccn3)c3[nH]nc(N)c23)cc1 (single isomer, unassigned) [Example 7-1, N-(4-(3-amino-7-(pyrimidin-2-yl)-6-(1,1,1-trifluoropropan-2-yl)-1H-pyrazolo[4,3-c]pyridin-4-yl)benzyl)-5-fluoro-2-methoxybenzamide] | 5 to 10 nM | ≤ 5 nM | – | –
11 | – | 5 to 10 nM | COc1ccc(F)cc1C(=O)NCc1ccc(-c2nc(C(C)C(F)(F)F)c(-c3ncccn3)c3[nH]nc(N)c23)cc1 (single isomer, unassigned) [Example 7-2, N-(4-(3-amino-7-(pyrimidin-2-yl)-6-(1,1,1-trifluoropropan-2-yl)-1H-pyrazolo[4,3-c]pyridin-4-yl)benzyl)-5-fluoro-2-methoxybenzamide] | – | – | 5 to 10 nM | ≤ 5 nM
12 | ≤ 5 nM | – | COc1ccc(F)cc1C(=O)NCc1ccc(-c2nc(C(C)C(F)(F)F)c(-c3ccn(C)n3)c3[nH]nc(N)c23)cc1 (centres unmarked) [Example 6, N-(4-(3-amino-7-(1-methyl-1H-pyrazol-3-yl)-6-(1,1,1-trifluoropropan-2-yl)-1H-pyrazolo[4,3-c]pyridin-4-yl)benzyl)-5-fluoro-2-methoxybenzamide] | 5 to 10 nM | ≤ 5 nM | – | –
13 | 5 to 10 nM | – | COc1ccc(F)cc1C(=O)NCc1ccc(-c2nc(C(C)C(F)(F)F)c(-c3ncccn3)c3[nH]nc(N)c23)cc1 (centres unmarked) [Example 7, N-(4-(3-amino-7-(pyrimidin-2-yl)-6-(1,1,1-trifluoropropan-2-yl)-1H-pyrazolo[4,3-c]pyridin-4-yl)benzyl)-5-fluoro-2-methoxybenzamide] | 5 to 10 nM | ≤ 5 nM | – | –
14 | 5 to 10 nM | – | COc1ccc(F)cc1C(=O)NCc1ccc(-c2ncc(-c3ccccn3)c3[nH]nc(N)c23)cc1 [Example 15, N-(4-(3-amino-7-(pyridin-2-yl)-1H-pyrazolo[4,3-c]pyridin-4-yl)benzyl)-5-fluoro-2-methoxybenzamide] | 5 to 10 nM | ≤ 5 nM | – | –
15 | 5 to 10 nM | – | COc1ccc(F)cc1C(=O)NCc1ccc(-c2ncc(-c3ncccn3)c3[nH]nc(N)c23)cc1 [Example 17, N-(4-(3-amino-7-(pyrimidin-2-yl)-1H-pyrazolo[4,3-c]pyridin-4-yl)benzyl)-5-fluoro-2-methoxybenzamide] | 5 to 10 nM | ≤ 5 nM | – | –
16 | ≤ 5 nM | – | COc1ccc(F)cc1C(=O)NCc1ccc(-c2ncc(-c3ccc(F)cn3)c3[nH]nc(N)c23)cc1 [Example 21, N-(4-(3-amino-7-(5-fluoropyridin-2-yl)-1H-pyrazolo[4,3-c]pyridin-4-yl)benzyl)-5-fluoro-2-methoxybenzamide] | ≤ 5 nM | ≤ 5 nM | – | –
17 | 10 to 50 nM | – | COc1ccc(F)cc1C(=O)NCc1ccc(-c2ncc(-c3cnn(C)c3)c3[nH]nc(N)c23)cc1 [Example 22, N-(4-(3-amino-7-(1-methyl-1H-pyrazol-4-yl)-1H-pyrazolo[4,3-c]pyridin-4-yl)benzyl)-5-fluoro-2-oxybenzamide] | > 50 nM | > 50 nM | – | –
18 | ≤ 5 nM | – | COc1ccc(F)cc1C(=O)NCc1ccc(-c2ncc(-c3ccn(C)n3)c3[nH]nc(N)c23)cc1 [Example 23, N-(4-(3-amino-7-(1-methyl-1H-pyrazol-3-yl)-1H-pyrazolo[4,3-c]pyridin-4-yl)benzyl)-5-fluoro-2-methoxybenzamide] | ≤ 5 nM | ≤ 5 nM | – | –
